Source: patent publication US12441717B2, “Crystal form of polycyclic anaplastic lymphoma kinase inhibitor” (SHANDONG XUANZHU PHARMA CO., LTD., priority 2020, dated 2025)
“And” between values parts separate entries of the source, which are not always exact repeats. Identical values can stand only once.

Legend:
Format in all cases: physicochemical
[1] = Moisture absorbability test (Chinese Pharmacopoeia 2015, General Principle 9103); details: for Moisture absorbability results: wrapped cells end with 'absorbability'
Description: A Test sample was taken and determined according to Chinese Pharmacopoeia, 2015 edition, vol. four, General Principle 9103, Guiding Principles for Drug Moisture Absorbability Test.

[2] = Solubility in buffered salt solutions of different pH (HPLC external standard); details: for solubility at 24 h: buffered salt solution, 25 °C, thermodynamic from solid
Description: The solubility (mg/mL) of crystal forms A and B and the amorphous form of the compound of formula (1) under different pH conditions were as shown in Table 1.

[3] = Stability study (high temperature, high humidity, light): properties, related substances, moisture, XRD; details: for XRD: pattern compared with day 0; for Stability under high temperature, high humidity and light conditions (conclusion): overall conclusion of the stability study
Description: 2.1 Study Conditions for Crystal Form B of the Compound of Formula (1): • Placed at 105° C. for 5 days, left open, and sampled and tested on days 1 and 5; • placed at 60° C. for 10 days, left open, and sampled and tested on days 5 and 10; • placed under 25° C. RH 92.5% conditions for 10 days, left open, and sampled and tested on days 5 and 10; • under light conditions, using open and closed conditions (polyethylene bag+composite film bag), and sampling and testing when illumination requirements were met; and • placed under 40° C. RH 75% conditions for 1 month, left open, and sampled and tested on day 10 and after 1 month.
2.2 Study Conditions for Crystal Form a of the Compound of Formula (1): • Placed at 105° C. for 5 days, left open, and sampled and tested on days 1 and 5; • placed at 60° C. for 10 days, left open, and sampled and tested on days 5 and 10; • placed under 25° C. RH 92.5% conditions for 10 days, left open, and sampled and tested on days 5 and 10; • under light conditions, left open, and sampled and tested when illumination requirements were met; and • placed under 40° C. RH 75% conditions for 10 days, left open, and sampled and tested on days 5 and 10.
2.3 Study Conditions for the Amorphous Form of the Compound of Formula (1): • Placed at 60° C. for 10 days, left open, and sampled and tested on day 10; placed under 25° C. RH 92.5% conditions for 10 days, left open, and sampled and tested on day 10; and • under light conditions, using open and closed conditions (polyethylene bag+composite film bag), and sampling and testing when illumination requirements were met.
Illumination requirements: ICH Q1B Stability Test: Photostability Testing of New Drug Substances and formulation.
Determination of related substances: Determination by high performance liquid chromatography in accordance with “Chinese Pharmacopoeia”, 2015 edition, Vol. four, General Principle 0512.
Moisture determination: Determination according to “Chinese Pharmacopoeia”, 2015 edition, vol. four, General Principle 0832, Moisture Determination Method, First Method (Fischer's method), 2 Coulometric Titration Method.
XRD determination: Determination according to “Chinese Pharmacopoeia”, 2015 edition, vol. four, General Principle 0451 X-ray Diffraction Method—Second Method, Powder X-ray Diffraction Method.

[4] = Fluidity after universal pulverization (angle of repose, Carr's index, electrostatic phenomenon); details: for Angle of repose / Carr's index % / ρbulk / ρtapped: after universal pulverization
Description: The amorphous form and crystal forms A and B of the compound of formula (1) were treated by universal pulverization.
The fluidity of the crystal form could be characterized by the angle of repose and the Carr's index. It was generally believed that the smaller the angle of repose and the Carr's index, the better the fluidity.

[5] = buffered salt solution pH 4.5, shaken at 25° C. for 24 h
[6] = Day 0, coulometric Fischer titration
[7] = Day 0, related substances by HPLC
[8] = Day 5, at 25° C. RH 92.5%, open
[9] = Day 10, at 25° C. RH 92.5%, open
[10] = Light - open, ICH Q1B illumination
[11] = Light - closed, ICH Q1B illumination

**Q.** With `Cc1cc(Nc2ncc(Cl)c(Nc3ccccc3S(=O)(=O)C(C)C)n2)c2c(c1C1CCNCC1)OCCO2` [Crystal form A, 5-chloro-N^4-(2-(isopropylsulfonyl)phenyl)-N^2-(7-methyl-8-(piperidin-4-yl)-2,3-dihydrobenzo[b][1,4]dioxin-5-yl)pyrimidine-2,4-diamine] as the compound, how does the “Hygroscopic weight gain (%)” value [1] read?
**A.** Its value is 0.08%.

**Q.** And the Moisture absorbability results [1]?
**A.** The Moisture absorbability results was “no or almost no moisture absorbability”.

**Q.** And the Solubility [2, 5]?
**A.** The Solubility was 2 µg/mL.

**Q.** And the Solubility ([2]; buffered salt solution pH 6.8, shaken at 25° C. for 24 h)?
**A.** The Solubility was “Not detected”.

**Q.** What about the Solubility ([2]; buffered salt solution pH 7.4, shaken at 25° C. for 24 h) of the same compound?
**A.** Its Solubility is “Not detected”.

**Q.** And the solubility at 24 h ([2]; pH 1, simulated gastric fluid, buffered salt solution pH 1.0, shaken at 25° C. for 24 h)?
**A.** Its solubility at 24 h is 16900 µg/mL.

**Q.** What about the Properties ([3]; Day 0) of the same compound?
**A.** Its Properties is “Off-white powder”.

**Q.** What about the Moisture % [3, 6] of the same compound?
**A.** Its Moisture % is 0.25%.

**Q.** What about the Overall related % [3, 7] of the same compound?
**A.** The Overall related % was 0.64%.

**Q.** What about the Moisture % ([3]; Day 1, at 105° C., open) of the same compound?
**A.** The Moisture % was 0.18%.

**Q.** What about the Overall related % ([3]; Day 1, at 105° C., open) of the same compound?
**A.** The Overall related % was 0.78%.

**Q.** What about the Properties ([3]; Day 1, at 105° C., open) of the same compound?
**A.** Its Properties is “Off-white powder”.

**Q.** And the Moisture % [3, 8]?
**A.** The Moisture % was 0.23%.

**Q.** What about the Overall related % [3, 8] of the same compound?
**A.** The Overall related % was 0.69%.

**Q.** What about the Properties [3, 8] of the same compound?
**A.** The Properties was “Off-white powder”.

**Q.** What about the Moisture % ([3]; Day 5, at 40° C. RH 75%, open) of the same compound?
**A.** Its Moisture % is 0.23%.

**Q.** And the Overall related % ([3]; Day 5, at 40° C. RH 75%, open)?
**A.** Its Overall related % is 0.79%.

**Q.** What about the Properties ([3]; Day 5, at 40° C. RH 75%, open) of the same compound?
**A.** Its Properties is “Off-white powder”.

**Q.** And the Moisture % ([3]; Day 5, at 60° C., open)?
**A.** The Moisture % was 0.17%.

**Q.** What about the Overall related % ([3]; Day 5, at 60° C., open) of the same compound?
**A.** Its Overall related % is 0.81%.

**Q.** And the Properties ([3]; Day 5, at 60° C., open)?
**A.** Its Properties is “Off-white powder”.

**Q.** And the Moisture % ([3]; Day 5, at 105° C., open)?
**A.** Its Moisture % is 0.17%.

**Q.** And the Overall related % ([3]; Day 5, at 105° C., open)?
**A.** Its Overall related % is 1.6%.

**Q.** And the Properties ([3]; Day 5, at 105° C., open)?
**A.** Its Properties is “Off-white powder”.

**Q.** And the Moisture % [3, 9]?
**A.** The Moisture % was 0.17%.

**Q.** What about the Overall related % [3, 9] of the same compound?
**A.** Its Overall related % is 0.78%.

**Q.** And the Properties [3, 9]?
**A.** The Properties was “Off-white powder”.

**Q.** And the Moisture % ([3]; Day 10, at 40° C. RH 75%, open)?
**A.** The Moisture % was 0.15%.

**Q.** And the Overall related % ([3]; Day 10, at 40° C. RH 75%, open)?
**A.** Its Overall related % is 0.89%.

**Q.** What about the Properties ([3]; Day 10, at 40° C. RH 75%, open) of the same compound?
**A.** The Properties was “Off-white powder”.

**Q.** And the Moisture % ([3]; Day 10, at 60° C., open)?
**A.** Its Moisture % is 0.11%.

**Q.** What about the Overall related % ([3]; Day 10, at 60° C., open) of the same compound?
**A.** Its Overall related % is 1.0%.

**Q.** What about the Properties ([3]; Day 10, at 60° C., open) of the same compound?
**A.** Its Properties is “Off-white powder”.

**Q.** And the Moisture % [3, 10]?
**A.** The Moisture % was 0.23%.

**Q.** And the Overall related % [3, 10]?
**A.** The Overall related % was 1.9%.

**Q.** And the Properties [3, 10]?
**A.** Its Properties is “Light yellow powder”.

**Q.** What about the XRD ([3]; Light - open) of the same compound?
**A.** The XRD was “Same as day 0”.

**Q.** And the “Stability under high temperature, high humidity and light conditions (conclusion)” value [3]?
**A.** The value was “relatively stable”.

**Q.** What about the “Electrostatic phenomenon after pulverization” value [4] of the same compound?
**A.** The value was “no obvious electrostatic phenomenon”.

**Q.** And the Angle of repose [4]?
**A.** Its Angle of repose is 53 °.

**Q.** What about the Carr's index % [4] of the same compound?
**A.** The Carr's index % was 45%.

**Q.** And the ρbulk [4]?
**A.** Its ρbulk is 0.35 g/mL.

**Q.** What about the ρtapped [4] of the same compound?
**A.** Its ρtapped is 0.63 g/mL.

**Q.** What does the source list for `Cc1cc(Nc2ncc(Cl)c(Nc3ccccc3S(=O)(=O)C(C)C)n2)c2c(c1C1CCNCC1)OCCO2` [Crystal form B, 5-chloro-N^4-(2-(isopropylsulfonyl)phenyl)-N^2-(7-methyl-8-(piperidin-4-yl)-2,3-dihydrobenzo[b][1,4]dioxin-5-yl)pyrimidine-2,4-diamine]?
**A.** Hygroscopic weight gain (%) [1]: 0.11%; Moisture absorbability results [1]: no or almost no moisture absorbability; Solubility ([2]; buffered salt solution pH 1.0, shaken at 25° C. for 24 h): 19800 µg/mL; Solubility [2, 5]: 22 µg/mL; solubility at 24 h ([2]; pH 6.8, aqueous buffer, buffered salt solution pH 6.8, shaken at 25° C. for 24 h): 13 µg/mL; solubility at 24 h ([2]; pH 7.4, aqueous buffer, buffered salt solution pH 7.4, shaken at 25° C. for 24 h): 10 µg/mL; Moisture % ([3]; 1 M, at 40° C. RH 75%, open): 0.39%; Overall related % ([3]; 1 M, at 40° C. RH 75%, open): 0.11%; Properties ([3]; 1 M, at 40° C. RH 75%, open): Off-white crystalline; Moisture % [3, 6]: 0.38% and 0.27%; Overall related % [3, 7]: 0.09% and 0.10%; Moisture % ([3]; Day 1, at 105° C., open): 0.34%; Overall related % ([3]; Day 1, at 105° C., open): 0.10%; Properties ([3]; Day 1, at 105° C., open): Off-white crystalline; Moisture % [3, 8]: 0.37%; Overall related % [3, 8]: 0.07%; Properties [3, 8]: Off-white crystalline; Moisture % ([3]; Day 5, at 60° C., open): 0.26%; Overall related % ([3]; Day 5, at 60° C., open): 0.08%; Properties ([3]; Day 5, at 60° C., open): Off-white crystalline; Moisture % ([3]; Day 5, at 105° C., open): 0.37%; Overall related % ([3]; Day 5, at 105° C., open): 0.08%; Properties ([3]; Day 5, at 105° C., open): Off-white crystalline; Moisture % [3, 9]: 0.43%; Overall related % [3, 9]: 0.10%; Properties [3, 9]: Off-white crystalline; Moisture % ([3]; Day 10, at 40° C. RH 75%, open): 0.42%; Overall related % ([3]; Day 10, at 40° C. RH 75%, open): 0.09%; Properties ([3]; Day 10, at 40° C. RH 75%, open): Off-white crystalline; Moisture % ([3]; Day 10, at 60° C., open): 0.45%; Overall related % ([3]; Day 10, at 60° C., open): 0.10%; Properties ([3]; Day 10, at 60° C., open): Off-white crystalline; Properties ([3]; Light - closed (polyethylene bag+composite film bag), ICH Q1B illumination): Off-white crystalline; Moisture % [3, 11]: 0.41%; Overall related % [3, 11]: 0.10%; Moisture % [3, 10]: 0.21%; Overall related % [3, 10]: 0.54%; Properties [3, 10]: Yellow powder; XRD ([3]; Light - open): Same as day 0; Stability under high temperature, high humidity and light conditions (conclusion) [3]: relatively stable; Electrostatic phenomenon after pulverization [4]: no electrostatic phenomenon; Angle of repose [4]: 45.8 °; Carr's index % [4]: 30%; ρbulk [4]: 0.477 g/mL; ρtapped [4]: 0.683 g/mL
